Laboratory results: patent publication US20160199436A1, “METHODS AND COMPOSITIONS FOR THE TREATMENT OF AMYOTROPHIC LATERAL SCLEROSIS” (University of Iowa Research Foudation, priority 2015, published 2016)
“Also recorded” adds a separate entry of the source.

Experiments:
SOD1 mice [1] = assay: Survival of SOD1 mice (ALS model), Kaplan Meier; assay type: in vivo, mouse
Source text: (§1) In this Example, SOD1 mice, a known and accepted model of amyotrophic lateral sclerosis (ALS), were used to assess the effects of angiotensin (1-7) peptides, here TXA127 (SEQ ID NO: 1), on survival and quality of life over time. The SOD1 mouse line are known to contain a G93A mutation in their superoxide dismutase 1 (SOD1) gene, and this mutation leads to a phenotype very similar to the phenotype of a human ALS sufferer.
(§2) A total of 70 mice were used in this study, 40 SOD1 mice and 30 wild type C57BL/6J mice (all were obtained from the Jackson Laboratories). Mice were three weeks old at the beginning of the study, and osmotic minipumps were implanted in each animal. After implantation, each animal was exposed to either 500 μg/kg/day TXA127 (SEQ ID NO: 1) or saline vehicle for up to 8 weeks. After 8 weeks, surviving mice received a daily injection of either 500 μg/kg TXA127 (SEQ ID NO: 1) or vehicle.

SOD1 mice [2] = assay: ALS score (disease progression/quality of life) in SOD1 mice; assay type: in vivo, mouse
Source text: as §1, §2
In addition to survival, disease progression/quality of life was measured over time using the rating scale described above. […] FIG. 3 further describes this effect, by showing the percentage of animals in each SOD1 group that were rated as having an ALS score of 2 or less over time.

[3] = 500 μg/kg/day TXA127 vs SOD1-vehicle, up to 30 weeks

## Asp^1-Arg^2-Val^3-Tyr^4-Ile^5-His^6-Pro^7 [TXA127]
SOD1 mice [1]; 500 μg/kg/day TXA127
  effect on survival (in words): powerful survival benefit; also recorded: significant effect on survival
  extension of life (median) versus vehicle treated SOD1 mice: 30 days
SOD1 mice [1]; 500 μg/kg/day TXA127 by osmotic minipump up to 8 weeks, then daily injection
  median survival: 164 days
SOD1 mice [2]; 500 μg/kg/day TXA127
  disease progression (summary in words): delays disease progression
SOD1 mice [2]; [3]
  percentage of animals with an ALS score of 2 or less over time (FIG. 3): clearly delayed the worsening of symptoms, often by several weeks
  sum of ALS scores over time (FIG. 2): significantly delaying worsening of symptoms
